Source: ChEMBL document CHEMBL1137558, “Synthesis and biological evaluation of new 2-arylcarbonyl-3-trifluoromethylquinoxaline 1,4-di-N-oxide derivatives and their reduced analogues” (2007)

Columns and labels:
Assay type in all cases: functional
[1] = Anticancer activity against prostate cancer cells; conditions: Homo sapiens, Cancer cell lines
[2] = Anticancer activity against human NCI60 cells; conditions: for CC50: read-out: LC50 (the source's name)
[3] = Anticancer activity against nonsmall lung cancer cells; conditions: Homo sapiens, Cancer cell lines
[4] = Anticancer activity against leukemia cells; conditions: Homo sapiens, Leukemia cell
[5] = Anticancer activity against colon cancer cells; conditions: Homo sapiens, Cancer cell lines
[6] = Anticancer activity against melanoma cells; conditions: Homo sapiens, Melanoma cell
[7] = Anticancer activity against ovarian cancer cells; conditions: Homo sapiens, Cancer cell lines
[8] = Anticancer activity against CNS cancer cells; conditions: Homo sapiens, Cancer cell lines
[9] = Anticancer activity against renal cancer cells; conditions: Homo sapiens, Cancer cell lines
[10] = Anticancer activity against breast cancer cells; conditions: Homo sapiens, Cancer cell lines

Row | Structure (SMILES) | GI50 [1] [nM] | GI50 [2] [nM] | TGI [2] [nM] | CC50 [2] [nM] | GI50 [3] [nM] | GI50 [4] [nM] | GI50 [5] [nM] | GI50 [6] [nM] | GI50 [7] [nM] | GI50 [8] [nM] | GI50 [9] [nM] | GI50 [10] [nM]
1 | O=C(c1cccs1)c1c(C(F)(F)F)[n+]([O-])c2cc(F)c(F)cc2[n+]1[O-] | 510 | 370 | 1620 | 9330 | 830 | 50 | 270 | 390 | 530 | 440 | 500 | 410
2 | O=C(c1cccs1)c1c(C(F)(F)F)[n+]([O-])c2ccccc2[n+]1[O-] | 400 | 980 | 3890 | 11200 | 350 | 13900 | 830 | 1390 | 750 | 1450 | 480 | 850
3 | O=C(c1ccc2ccccc2c1)c1c(C(F)(F)F)[n+]([O-])c2ccc(F)cc2[n+]1[O-] | 1620 | 1150 | 2820 | 8320 | 1540 | 440 | 740 | 1120 | 1200 | 1610 | 1480 | 1700
4 | O=C(c1ccco1)c1c(C(F)(F)F)[n+]([O-])c2cc(C(F)(F)F)ccc2[n+]1[O-] | 190 | 470 | 1200 | 3890 | 480 | 130 | 280 | 860 | 650 | 810 | 490 | 480
5 | O=C(c1ccco1)c1c(C(F)(F)F)nc2ccc(C(F)(F)F)cc2[n+]1[O-] | 38500 | 37200 | 83200 | > 100000 | 39400 | 88100 | 49800 | 31500 | 29300 | 25300 | 28600 | 34300
6 | O=C(c1ccco1)c1c(C(F)(F)F)nc2cc(C(F)(F)F)ccc2[n+]1[O-] | 44700 | 46800 | 89100 | > 100000 | 47700 | 43600 | 85400 | 80600 | 40400 | 24400 | 34600 | 38500
7 | Cc1cc2c(cc1C)[n+]([O-])c(C(F)(F)F)c(C(=O)c1cccs1)[n+]2[O-] | 3890 | 3470 | 17400 | 61700 | 2810 | 2710 | 5310 | 3990 | 2340 | 3050 | 4620 | 3080
8 | O=C(c1cccs1)c1c(C(F)(F)F)[n+]([O-])c2ccc(C(F)(F)F)cc2[n+]1[O-] | 200 | – | – | 5500 | 450 | 200 | 380 | 900 | 430 | 480 | 310 | 500
9 | COc1ccc2c(c1)[n+]([O-])c(C(=O)c1ccco1)c(C(F)(F)F)[n+]2[O-] | 3160 | 2820 | 18600 | 74100 | 3490 | 3960 | 2510 | 3030 | 2510 | 3200 | 1740 | 2880
10 | Cc1ccc2c(c1)[n+]([O-])c(C(=O)c1cccs1)c(C(F)(F)F)[n+]2[O-] | 890 | 550 | 5500 | 33100 | 560 | 490 | 880 | 900 | 270 | 750 | 250 | 760
11 | O=C(c1cccs1)c1c(C(F)(F)F)[n+]([O-])c2ccc(F)cc2[n+]1[O-] | 1510 | 1200 | 2880 | 9330 | 1680 | 270 | 920 | 1510 | 1170 | 1630 | 1650 | 1190
12 | O=C(c1ccco1)c1c(C(F)(F)F)[n+]([O-])c2ccc(Cl)cc2[n+]1[O-] | 110 | 320 | 2570 | 10000 | 360 | 190 | 210 | 490 | 560 | 770 | 200 | 280
13 | O=C(c1ccco1)c1c(C(F)(F)F)[n+]([O-])c2ccc(C(F)(F)F)cc2[n+]1[O-] | 420 | 600 | 1480 | 5010 | 760 | 210 | 570 | 1110 | 720 | 910 | 430 | 570
